Measured values as given in PubChem BioAssay AID328 (DTP/NCI, 2004).
Where “and” joins values, the source holds several entries; their conditions need not be identical. Equal values may be shown once. Toxic doses and inconclusive results are not listed.

Tested on: BDF1 mice, P388 leukemia ip, median survival T/C
Experiment: NCI In Vivo Anticancer Drug Screen. Data for tumor model P388 Leukemia (intraperitoneal) in B6D2F1 (BDF1) mice
Details: endpoint: median survival time, higher = longer survival
Outline: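 In tumour-bearing mice, survival after compound treatment is set against the vehicle group and given as a quotient.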

[1] = dose: 100.0 mg/kg/injection, schedule: Q04DX003 (ip), vehicle: saline sonified
[2] = dose: 200.0 mg/kg/injection, schedule: Q04DX003 (ip), vehicle: saline sonified
[3] = dose: 50.0 mg/kg/injection, schedule: Q01DX009 (ip), vehicle: saline with Tween-80
[4] = dose: 100.0 mg/kg/injection, schedule: Q01DX009 (ip), vehicle: saline with Tween-80
[5] = dose: 200.0 mg/kg/injection, schedule: Q01DX009 (ip), vehicle: saline with Tween-80
[6] = dose: 200.0 mg/kg/injection, schedule: Q01DX009 (ip), vehicle: Klucel (hydroxypropylcellulose) (HPC)
[7] = dose: 100.0 mg/kg/injection, schedule: Q01DX009 (ip), vehicle: Klucel (hydroxypropylcellulose) (HPC)

O=c1ccc2c([nH]1)CCCCC2
T/C (dose: 50.0 mg/kg/injection, schedule: Q04DX003 (ip), vehicle: saline sonified): 104 % of control
T/C [1]: 100 % of control
T/C [2]: 95 % of control

CCCC[P+](c1ccccc1)(c1ccccc1)c1ccccc1
T/C (dose: 0.6 mg/kg/injection, schedule: Q01DX009 (ip), vehicle: saline): 122 % of control
T/C (dose: 1.2 mg/kg/injection, schedule: Q01DX009 (ip), vehicle: saline): 105 % of control
T/C (dose: 2.5 mg/kg/injection, schedule: Q01DX009 (ip), vehicle: saline): 150 % of control
T/C (dose: 5.0 mg/kg/injection, schedule: Q01DX009 (ip), vehicle: saline): 115 % of control
T/C (dose: 40.0 mg/kg/injection, schedule: Q01DX009 (ip), vehicle: saline): 95 % of control

CC(C)CC(NC(=O)c1ccccc1)C(=O)O (centres undefined)
T/C (dose: 100.0 mg/kg/injection, schedule: Q04DX003 (ip), vehicle: alkali diluted with water): 99 % of control
T/C (dose: 200.0 mg/kg/injection, schedule: Q04DX003 (ip), vehicle: alkali diluted with water): 99 % of control
T/C (dose: 400.0 mg/kg/injection, schedule: Q04DX003 (ip), vehicle: alkali diluted with water): 108 % of control

C#CC1(OCC(O)CO)CCCCC1 (centres undefined)
T/C (dose: 3.12 mg/kg/injection, schedule: Q01DX009 (ip), vehicle: water): 107 % of control
T/C (dose: 6.25 mg/kg/injection, schedule: Q01DX009 (ip), vehicle: water): 110 % of control
T/C (dose: 12.5 mg/kg/injection, schedule: Q01DX009 (ip), vehicle: water): 100 % of control
T/C (dose: 25.0 mg/kg/injection, schedule: Q01DX009 (ip), vehicle: water): 110 % of control
T/C (dose: 50.0 mg/kg/injection, schedule: Q01DX009 (ip), vehicle: water): 94 % of control
T/C (dose: 100.0 mg/kg/injection, schedule: Q01DX009 (ip), vehicle: water): 103 % of control
T/C (dose: 200.0 mg/kg/injection, schedule: Q01DX009 (ip), vehicle: water): 103 % of control
T/C (dose: 400.0 mg/kg/injection, schedule: Q01DX009 (ip), vehicle: water): 118 % of control

O=C(/C=C/c1ccc(OCc2ccccc2)cc1)c1cccc(Br)c1
T/C [3]: 89 % of control
T/C [4]: 100 % of control
T/C [5]: 91 % of control

O=C1OC(c2ccccc2)(c2ccccc2)c2ccccc21
T/C (dose: 45.0 mg/kg/injection, schedule: Q01DX009 (ip), vehicle: Klucel (hydroxypropylcellulose) (HPC)): 100 % of control
T/C (dose: 65.0 mg/kg/injection, schedule: Q01DX009 (ip), vehicle: Klucel (hydroxypropylcellulose) (HPC)): 90 % of control
T/C (dose: 150.0 mg/kg/injection, schedule: Q01DX009 (ip), vehicle: Klucel (hydroxypropylcellulose) (HPC)): 90 % of control
T/C [6]: 90 % of control
T/C (dose: 400.0 mg/kg/injection, schedule: Q01DX009 (ip), vehicle: Klucel (hydroxypropylcellulose) (HPC)): 86 % of control

CCCCCCCCCCCC[n+]1cccc2ccccc21
T/C (dose: 0.15 mg/kg/injection, schedule: Q01DX009 (ip), vehicle: saline): 100 % of control
T/C (dose: 0.17 mg/kg/injection, schedule: Q04DX003 (ip), vehicle: saline): 118 % of control
T/C (dose: 0.34 mg/kg/injection, schedule: Q01DX009 (ip), vehicle: saline): 90 % of control and 122 % of control
T/C (dose: 0.35 mg/kg/injection, schedule: Q01DX009 (ip), vehicle: saline): 163 % of control
T/C (dose: 0.35 mg/kg/injection, schedule: Q04DX003 (ip), vehicle: saline): 122 % of control
T/C (dose: 0.7 mg/kg/injection, schedule: Q01DX009 (ip), vehicle: saline): 157 % of control
T/C (dose: 0.7 mg/kg/injection, schedule: Q04DX003 (ip), vehicle: saline): 118 % of control

CC(C)CNC(c1ccc2c(c1)OCO2)C(O)c1ccc2c(c1)OCO2 (centres undefined)
T/C (dose: 100.0 mg/kg/injection, schedule: Q01DX001 (ip), vehicle: saline with Tween-80): 100 % of control
T/C (dose: 200.0 mg/kg/injection, schedule: Q01DX001 (ip), vehicle: saline with Tween-80): 115 % of control
T/C (dose: 400.0 mg/kg/injection, schedule: Q01DX001 (ip), vehicle: saline with Tween-80): 108 % of control

Cc1ccc(N2CCNCC2)cc1
T/C (dose: 6.25 mg/kg/injection, schedule: Q04DX003 (ip), vehicle: saline sonified): 95 % of control
T/C (dose: 12.5 mg/kg/injection, schedule: Q04DX003 (ip), vehicle: saline sonified): 100 % of control
T/C (dose: 25.0 mg/kg/injection, schedule: Q04DX003 (ip), vehicle: saline sonified): 100 % of control

O=[N+]([O-])c1ccc(N/N=C/C(Br)(Br)Br)c([N+](=O)[O-])c1
T/C [3]: 111 % of control
T/C [4]: 104 % of control
T/C [5]: 103 % of control

O=c1c[n+](-c2ccccc2)[nH]o1
T/C [7]: 115 % of control
T/C [6]: 90 % of control

CC(Oc1ccc2ccccc2c1I)C(=O)O (centres undefined)
T/C (dose: 50.0 mg/kg/injection, schedule: Q01DX005 (ip), vehicle: saline with Tween-80): 91 % of control
T/C (dose: 100.0 mg/kg/injection, schedule: Q01DX005 (ip), vehicle: saline with Tween-80): 113 % of control
T/C (dose: 200.0 mg/kg/injection, schedule: Q01DX005 (ip), vehicle: saline with Tween-80): 106 % of control

O=NN(CCCl)C(=O)NCC1CCC(CNC(=O)N(CCCl)N=O)CC1 (centres undefined)
T/C (dose: 3.13 mg/kg/injection, schedule: Q01DX009 (ip), vehicle: other): 113 % of control
T/C (dose: 6.25 mg/kg/injection, schedule: Q01DX009 (ip), vehicle: other): 122 % of control
T/C (dose: 12.5 mg/kg/injection, schedule: Q01DX009 (ip), vehicle: other): 116 % of control
T/C (dose: 25.0 mg/kg/injection, schedule: Q01DX009 (ip), vehicle: Klucel (hydroxypropylcellulose) (HPC)): 154 % of control
T/C (dose: 26.4 mg/kg/injection, schedule: Q01DX009 (ip), vehicle: other): 154 % of control
T/C (dose: 40.0 mg/kg/injection, schedule: Q01DX009 (ip), vehicle: other): 159 % of control
T/C (dose: 44.0 mg/kg/injection, schedule: Q01DX009 (ip), vehicle: other): 227 % of control
T/C (dose: 50.0 mg/kg/injection, schedule: Q01DX009 (ip), vehicle: Klucel (hydroxypropylcellulose) (HPC)): 115 % of control
T/C (dose: 66.0 mg/kg/injection, schedule: Q01DX009 (ip), vehicle: other): 240 % of control
T/C (dose: 66.0 mg/kg/injection, schedule: Q04DX003 (ip), vehicle: saline sonified): 170 % of control
T/C [7]: 169 % of control
T/C (dose: 100.0 mg/kg/injection, schedule: Q01DX009 (ip), vehicle: other): 272 % of control and 300 % of control
T/C [1]: 175 % of control and 185 % of control
T/C (dose: 150.0 mg/kg/injection, schedule: Q01DX009 (ip), vehicle: other): 245 % of control
T/C (dose: 150.0 mg/kg/injection, schedule: Q04DX003 (ip), vehicle: saline sonified): 180 % of control
T/C [6]: 176 % of control
T/C [2]: 240 % of control

COC(=O)C(Br)C(Br)c1ccccc1 (centres undefined)
T/C [4]: 113 % of control
T/C (dose: 400.0 mg/kg/injection, schedule: Q01DX009 (ip), vehicle: saline with Tween-80): 118 % of control

C=CCNC(=O)NCC=C
T/C (dose: 100.0 mg/kg/injection, schedule: Q01DX010 (ip), vehicle: saline): 161 % of control

Cc1c(N)nc(C(CC(N)=O)NCC(N)C(N)=O)nc1C(=O)NC(C(=O)NC(C)C(O)C(C)C(=O)NC(C(=O)NCCc1nc(-c2nc(C(=O)NCCC[S+](C)C)cs2)cs1)C(C)O)C(OC1OC(CO)C(O)C(O)C1OC1OC(CO)C(O)C(OC(N)=O)C1O)c1cnc[nH]1 (centres undefined)
T/C (dose: 0.5 mg/kg/injection, schedule: Q01DX009 (ip), vehicle: saline): 115 % of control
T/C (dose: 1.0 mg/kg/injection, schedule: Q01DX009 (ip), vehicle: saline): 115 % of control and 116 % of control
T/C (dose: 2.0 mg/kg/injection, schedule: Q01DX009 (ip), vehicle: saline): 120 % of control
T/C (dose: 8.0 mg/kg/injection, schedule: Q01DX009 (ip), vehicle: saline): 163 % of control
T/C (dose: 16.0 mg/kg/injection, schedule: Q01DX009 (ip), vehicle: saline): 90 % of control and 93 % of control and 118 % of control
T/C (dose: 32.0 mg/kg/injection, schedule: Q01DX009 (ip), vehicle: saline): 100 % of control

COc1cc(C)c(Cl)c(C)c1C#CC(=O)O
T/C (dose: 100.0 mg/kg/injection, schedule: Q01DX001 (ip), vehicle: Klucel (hydroxypropylcellulose) (HPC)): 115 % of control
T/C (dose: 200.0 mg/kg/injection, schedule: Q01DX001 (ip), vehicle: Klucel (hydroxypropylcellulose) (HPC)): 111 % of control

CC[N+](C)(C)CC
T/C (dose: 25.0 mg/kg/injection, schedule: Q01DX001 (ip), vehicle: saline): 105 % of control
T/C (dose: 50.0 mg/kg/injection, schedule: Q01DX001 (ip), vehicle: saline): 103 % of control
T/C (dose: 100.0 mg/kg/injection, schedule: Q01DX001 (ip), vehicle: saline): 96 % of control and 117 % of control
